# PubChem BioAssay (NCI)
#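 48-hour exposure; five concentrations; linearly interpolated endpoints. Abbreviation: GI50, concentration required for 50% inhibition of growth. Definition used: TGI = concentration required for complete inhibition of growth.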
# How the values were obtained:
# Test in all cases: NCI tumour cell line growth inhibition, 48 h
# CCRF-CEM leukemia = tested on: CCRF-CEM leukemia
# COLO 205 colon = tested on: COLO 205 colon
# NCI-H226 lung = tested on: NCI-H226 lung
# OVCAR-8 ovarian = tested on: OVCAR-8 ovarian
# PC-3 prostate = tested on: PC-3 prostate
# SF-539 CNS = tested on: SF-539 CNS
# SN12C renal = tested on: SN12C renal
# U251 CNS = tested on: U251 CNS
# UO-31 renal = tested on: UO-31 renal
# TK-10 renal = tested on: TK-10 renal
Structure (SMILES),GI50 (CCRF-CEM leukemia),TGI (CCRF-CEM leukemia),GI50 (COLO 205 colon),TGI (COLO 205 colon),GI50 (NCI-H226 lung),TGI (NCI-H226 lung),GI50 (OVCAR-8 ovarian),TGI (OVCAR-8 ovarian),GI50 (PC-3 prostate),TGI (PC-3 prostate),GI50 (SF-539 CNS),TGI (SF-539 CNS),GI50 (SN12C renal),TGI (SN12C renal),GI50 (U251 CNS),TGI (U251 CNS),GI50 (UO-31 renal),TGI (UO-31 renal),GI50 (TK-10 renal),TGI (TK-10 renal)
COc1ccc2c(C3(c4cn(C)c5cc(OC)ccc45)C(=O)Nc4ccc(Cl)cc43)cn(C)c2c1,3.81 µM,> 100 µM,1.95 µM,4.73 µM,5.44 µM,> 100 µM,3.09 µM,> 100 µM,3.65 µM,> 100 µM,9.19 µM,> 100 µM,1.91 µM,4.63 µM,3.81 µM,> 100 µM,1.48 µM,> 100 µM,,
CC1=CC(=O)C(C(C)C)=CC1=Nc1cc(Br)c(O)c(Br)c1,2.72 µM,18.1 µM,19.2 µM,35.1 µM,3.87 µM,19.3 µM,4.65 µM,57.8 µM,,,2.29 µM,5.96 µM,5.56 µM,18.3 µM,4.72 µM,19.1 µM,8.22 µM,33.1 µM,11.7 µM,31.4 µM
NC(=O)c1c([N+](=O)[O-])cc(C(F)(F)F)cc1[N+](=O)[O-],,,,62.7 µM,,> 100 µM,,> 100 µM,,,,> 100 µM,,> 100 µM,,> 100 µM,,> 100 µM,,> 100 µM
O=C(O)C1CCCCC1c1c2ccc(=O)c(O)c-2oc2c(O)c(O)ccc12 (configuration not stated),,3.11 µM,,> 100 µM,,71.5 µM,,88.7 µM,,> 100 µM,,,,39.3 µM,,24.8 µM,,> 100 µM,,> 100 µM
Cc1noc2c1C(=O)CCC2,,> 100 µM,,> 100 µM,,> 100 µM,,> 100 µM,,,,> 100 µM,,> 100 µM,,,,> 100 µM,,> 100 µM
CCC/C=C1\CCC(CN(C)C)C1=O (configuration not stated),,1.97 µM,,10.7 µM,,35.1 µM,,33.7 µM,,,,25.3 µM,,32.7 µM,,15.6 µM,,26.6 µM,,14.6 µM
Oc1ccc(O)c(-c2cc(-c3ccc(Cl)cc3)nn2-c2ccccc2)c1,3.06 µM,> 100 µM,,,5.97 µM,24.3 µM,4.51 µM,> 100 µM,3.19 µM,13.1 µM,31 µM,52.5 µM,2.88 µM,7.19 µM,,,12.2 µM,> 100 µM,6.58 µM,25.6 µM
Cc1cccc(C(C)C)c1N1C(=O)C(=O)C(c2nc3ccccc3o2)C(=O)C1=O,,63 µM,,> 100 µM,,> 100 µM,,> 100 µM,,,,> 100 µM,,> 100 µM,,> 100 µM,,> 100 µM,,> 100 µM
O=C(CC1(O)C(=O)Nc2ccc(Br)cc21)c1ccc(Cl)cc1Cl (configuration not stated),,57.1 µM,,> 100 µM,,> 100 µM,,> 100 µM,,,,> 100 µM,,> 100 µM,,> 100 µM,,> 100 µM,,> 100 µM
O=[N+]([O-])c1ccc(-c2noc(-c3ccc(Cl)cc3)c2C2=NCCN2)cc1,,> 100 µM,,> 100 µM,,> 100 µM,,> 100 µM,,,,> 100 µM,,> 100 µM,,> 100 µM,,> 100 µM,,
